The values below come from patent publication US20250235432A1, “METHODS OF TREATING CANCERS” (Foghorn Therapeutics Inc., priority 2018, published 2025).

Holding throughout (type): cell-based
Test [1] concerns uveal melanoma cell lines 92-1 or MP41. The test can be described thus: 3-day growth inhibition of uveal melanoma cell lines, comparison to clinical PKC and MEK inhibitors. The following applies: for onset of growth inhibition compared to the clinical PKC and MEK inhibitors: 92-1 or MP41; for growth inhibition of uveal melanoma cells compared to the clinical PKC and MEK inhibitors (LXS196, Selumetinib): 92-1 or MP41, 3 days, 0 to 10 micromolar. The method, then:
Procedure: Uveal melanoma cell lines, 92-1 or MP41, were plated in 96 well plates in the presence of growth media (see Table 1). […] Cells were incubated at 37° C. for 3 days. After 3 days of treatment, cell growth was measured with Cell-titer glow (Promega), and luminescence was read on an Envision plate reader (Perkin Elmer).
Procedure: Uveal melanoma cell lines, 92-1 or MP41, were plated in 96 well plates in the presence of growth media (see Table 1). BAF ATPase inhibitor (compound 18), PKC inhibitor (LXS196; MedChemExpress), and MEK inhibitor (Selumetinib; Selleck Chemicals) were dissolved in DMSO and added to the cells in a concentration gradient from 0 to 10 micromolar at the time of plating. Cells were incubated at 37° C. for 3 days. After three days of treatment, cell growth was measured with Cell-titer glow (Promega), and luminescence was read on an Envision plate reader (Perkin Elmer).

In test [2] the test system is uveal melanoma cell lines (92-1, MP41, MP38, MP46). Nature of the test: 3-day growth inhibition of uveal melanoma and non-small cell lung cancer cell lines. The following applies: 3 days, 0 to 10 micromolar, FIG. 5. The method, then:
Procedure: Uveal melanoma cell lines (92-1, MP41, MP38, MP46) and non-small cell lung cancer cells (NCl-H1299) were plated into 96 well plates with growth media (see Table 1). BRG1/BRM ATPase inhibitor, compound 18, was dissolved in DMSO and added to the cells in a concentration gradient from 0 to 10 micromolar at the time of plating. Cells were incubated at 37° C. for 3 days. After three days of treatment, cell growth was measured with Cell-titer glow (Promega), and luminescence was read on an Envision plate reader (Perkin Elmer).

Test [3] has as its system parental MP41 and PKCi-resistant MP41 uveal melanoma cells. The test can be described thus: 7-day growth inhibition assay, parental and PKC inhibitor-resistant cells. As to the method: Procedure: Uveal melanoma cell lines (92-1, MP41, MP38, MP46), prostate cancer cell lines (LNCAP), lung cancer cell lines (NClH1299), and immortalized embryonic kidney lines (HEK293T) were plated into 96 well plates with growth media (see Table 1). […] Cells were incubated at 37° C. for 3 days. After 3 days of treatment, the media was removed from the cells, and 30 microliters of TrypLE (Gibco) was added to cells for 10 minutes. Cells were detached from the plates and resuspended with the addition of 170 microliters of growth media. Cells from two DMSO-treated control wells were counted, and the initial number of cells plated at the start of the experiment, were re-plated into fresh-compound containing plates for an additional four days at 37° C. At day 7, cells were harvested as described above.
On day 3 and day 7, relative cell growth was measured by the addition of Cell-titer glo (Promega), and luminescence was measured on an Envision plate reader (Perkin Elmer).
Procedure: MP41 uveal melanoma cells were made resistant to the PKC inhibitor (LXS196; MedChemExpress), by long-term culture in growth media (see Table 1) containing increasing concentrations of the compound, up to 1 micromolar. After 3 months, sensitivity of the parental MP41 cells and the PKC inhibitor (PKCi)-resistant cells to the PKC inhibitor (LXS196) or the BRG1/BRM ATPase inhibitor (compound 18) was tested in a 7-day growth inhibition assay as described above in Example 2.

In the case of `CSCC[C@H](NC(=O)c1ccn(S(C)(=O)=O)c1)C(=O)Nc1nc(-c2cccc(-c3ccncc3)c2)cs1` [compound 18, (S)-1-(methylsulfonyl)-N-(4-(methylthio)-1-oxo-1-((4-(3-(pyridin-4-yl)phenyl)thiazol-2-yl)amino)butan-2-yl)-1H-pyrrole-3-carboxamide], in test [1], the “onset of growth inhibition compared to the clinical PKC and MEK inhibitors” value is listed as “faster onset of growth inhibition”; the “growth inhibition of uveal melanoma cells compared to the clinical PKC and MEK inhibitors (LXS196, Selumetinib)” value is on record as “more potent effects on growth inhibition”. For the same compound, in test [2], the “growth inhibition in the uveal melanoma cell lines” value is on record as “potent growth inhibition”. Moreover, in test [3] (7-day assay, FIG. 7B), the “sensitivity of PKCi-resistant cells relative to parental MP41 cells” value is on record as “more sensitive”. For the same compound, in test [3] (MP41, 7-day assay, FIG. 7B), the “growth inhibition of both the PKCi-resistant and parental cell lines” value is “strong growth inhibition”.

Take `CSCC[C@H](NC(=O)c1ccc(N)cc1)C(=O)Nc1nc(-c2cccc(-c3ccncc3)c2)cs1` [compound 17, 4-amino-N-[(1S)-3-methylsulfanyl-1-[[4-[3-(4-pyridyl)phenyl]thiazol-2-yl]carbamoyl]propyl]benzamide]: in test [1], the “onset of growth inhibition compared to the clinical PKC and MEK inhibitors” value is on record as “faster onset of inhibition”; the “growth inhibition of uveal melanoma cells compared to the clinical PKC and MEK inhibitors (LXS196, Selumetinib)” value is “comparable growth inhibition”.

In the case of `CC1(N)CCN(c2cccnc2NC(=O)c2nc(-c3ncccc3C(F)(F)F)cnc2N)CC1` [LXS196, reference compound], the “tolerance of PKCi-resistant cells relative to the parental MP41 cell line” value in test [3] (7-day assay, FIG. 7A) is “could tolerate growth at higher concentrations”.
